For experiment [1], the target named is T1, Thyroid hormone receptor beta (Homo sapiens, UniProt P10828).
T1 sequence (P10828 whole entry): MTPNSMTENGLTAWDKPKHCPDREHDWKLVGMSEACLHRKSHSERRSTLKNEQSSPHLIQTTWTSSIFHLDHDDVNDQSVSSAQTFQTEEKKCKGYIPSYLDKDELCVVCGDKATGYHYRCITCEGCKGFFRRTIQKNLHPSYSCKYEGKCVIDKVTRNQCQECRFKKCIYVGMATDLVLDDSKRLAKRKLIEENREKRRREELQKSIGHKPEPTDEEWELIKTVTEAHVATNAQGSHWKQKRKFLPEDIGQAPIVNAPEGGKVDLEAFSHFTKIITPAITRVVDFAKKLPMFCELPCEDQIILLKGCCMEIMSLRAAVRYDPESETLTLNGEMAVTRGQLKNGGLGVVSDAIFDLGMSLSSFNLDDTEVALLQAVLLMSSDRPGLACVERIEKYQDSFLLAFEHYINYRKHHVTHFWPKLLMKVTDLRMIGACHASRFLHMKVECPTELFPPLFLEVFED
In words: Binding affinity towards thyroid hormone receptor (hTR beta 1).

For experiment [2], the target named is T2, Thyroid hormone receptor alpha (Homo sapiens, UniProt P10827).
T2 sequence (P10827 whole entry): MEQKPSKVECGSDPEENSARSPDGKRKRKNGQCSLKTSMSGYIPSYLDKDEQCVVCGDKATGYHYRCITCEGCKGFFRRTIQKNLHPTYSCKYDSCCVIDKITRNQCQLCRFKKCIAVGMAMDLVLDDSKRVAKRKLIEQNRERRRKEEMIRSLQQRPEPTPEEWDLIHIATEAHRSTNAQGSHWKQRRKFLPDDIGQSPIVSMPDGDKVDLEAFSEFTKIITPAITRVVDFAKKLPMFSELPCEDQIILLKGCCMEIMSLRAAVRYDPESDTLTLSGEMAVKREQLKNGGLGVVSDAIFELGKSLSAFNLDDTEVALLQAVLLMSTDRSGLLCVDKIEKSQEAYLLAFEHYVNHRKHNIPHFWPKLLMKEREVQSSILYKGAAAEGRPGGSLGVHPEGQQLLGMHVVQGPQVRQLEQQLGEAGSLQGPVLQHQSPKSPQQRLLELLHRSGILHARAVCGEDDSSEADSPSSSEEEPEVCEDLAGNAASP
In words: Binding affinity towards thyroid hormone receptor (hTR alpha 1).

For `CCCCN(C)C(=O)CCCCCC/C=C\CCC(c1ccc(O)c(C(C)C)c1)c1c(C)cc(OCC(=O)O)cc1C` (stereo not given), the Kd (as a rule, a measure of binding affinity in units of concentration) in experiment [1] amounted to 720 nM; in experiment [2], 240 nM.
`CCCCN(C)C(=O)CCCCCCCCCCC(c1ccc(O)c(C(C)C)c1)c1c(C)cc(OCC(=O)O)cc1C` (stereo not given): the dissociation constant (Kd) in experiment [1] is 148 nM; in experiment [2], 112 nM.
Taken in the same sequence, the figures for `COc1ccc(C(c2ccc(O)c(C(C)C)c2)c2c(C)cc(OCC(=O)O)cc2C)c(OC)c1` (stereo not given) were 4200 nM and 1400 nM.
For the compound `C=CCC(c1ccc(O)c(C(C)C)c1)c1c(C)cc(OCC(=O)O)cc1C` (stereo not given), the Kd was found to be 90 nM in experiment [1] and 430 nM in experiment [2].
Taken in the same sequence, the figures for `Cc1cc(OCC(=O)O)cc(C)c1C(CCCO)c1ccc(O)c(C(C)C)c1` (stereo not given) were 3600 nM and 1400 nM.
